Experiments:
[1] = Blood hydroxytyrosol after oral administration with reduced doses of grape seed extract (Example 3); assay type: in vivo; conditions: male, SD (IGS), rat, rats, hydroxytyrosol 30 mg/kg alone (control), plasma, read-out: AUC of hydroxytyrosol at 0 to 6 hours
Text: The present inventors investigated whether the same promoting effect on the absorption of hydroxytyrosol in the body as observed in Example 2 can be observed even if the dose of the grape seed extract is reduced.
SD (IGS) male rats (9.5 weeks old) were purchased from Oriental Bioservice, Inc. and habituated to the test environment for two weeks, and then those rats which were well grown were put to use in the selected test. Those rats fasted overnight were divided into three groups each consisting of 4 animals. Group 1 (control) was given 30 mg/5 mL/kg of a hydroxytyrosol solution in distilled water; Group 2 was given 30 mg/kg of hydroxytyrosol plus 5 mL/kg of a solution of 150 mg/kg grape seed extract in distilled water; and Group 3 was given 30 mg/kg of hydroxytyrosol plus 5 mL/kg of a solution of 250 mg/kg grape seed extract in distilled water—all of the groups were orally administered using a sonde. Before and at 0.25, 0.5, 1, 2, 3 and 6 hours after the start of treatment, blood was sampled from the tail vein using a heparin-coated blood collection tube and centrifuged (at 8000 rpm for 10 min) to obtain plasma samples. […] The resulting solutions were analyzed by LC/MS/MS, and quantification of hydroxytyrosol was performed using the internal standard method. […]

[2] = Blood hydroxytyrosol after oral administration with 500 mg/kg grape seed extract (Example 2, LC/MS/MS); assay type: in vivo, SD (IGS) male rats; conditions: rats, hydroxytyrosol 30 mg/kg alone
Method: The present inventors investigated the influence of an OPC on the absorption of hydroxytyrosol in the body.
SD (IGS) male rats (9 weeks old) were purchased from Oriental Bioservice, Inc. and habituated to the test environment for one week, and then those rats which were well grown were put to use in the selected test. Those rats fasted overnight were divided into two groups each consisting of 5 or 6 animals. Group 1 (control) was given 30 mg/5 mL/kg of a hydroxytyrosol solution in distilled water; and Group 2 was given 30 mg/kg of hydroxytyrosol plus 5 mL/kg of a solution of 500 mg/kg grape seed extract in distilled water—both of the groups were orally administered using a sonde. Before and at 0.25, 0.5, 1, 2, 3 and 6 hours after the start of treatment, blood was sampled from the tail vein using a heparin-coated blood collection tube and centrifuged (at 8000 rpm for 10 min) to obtain plasma samples. The obtained plasma samples were subjected to deconjugation and deproteinization treatments, and the resulting supernatants were concentrated under reduced pressure, redissolved in 20% acetonitrile, and passed through a filter. The resulting solutions were analyzed by LC/MS/MS, and quantification of hydroxytyrosol was performed using the internal standard method. HPLC conditions
Internal standard (I.S.): 3-(4-hydroxyphenyl)-1-propanol […]

[3] = Blood hydroxytyrosol after oral administration with EGCG or EGC (Example 1, HPLC); assay type: in vivo, SD (IGS) male rats; conditions: rats
Text: The present inventors analyzed the influence of the particular compound having a galloyl group, i.e., EGCG, on the absorption of hydroxytyrosol in the body. At the same time, the inventors also analyzed the influence of EGC, a compound having no galloyl group, on the absorption of hydroxytyrosol in the body. By comparing the results for EGCG with those for the control, we investigated whether the galloyl group is involved in the absorption of hydroxytyrosol in the body.
SD (IGS) male rats (5 weeks old) were purchased from Oriental Bioservice, Inc. and habituated to the test environment for one week, and then those rats which were well grown were put to use in the selected test. Those rats fasted overnight were divided into three groups each consisting of 4 or 5 animals. Group 1 (control) was given 5 mL/kg of distilled water and 50 mg/5 mL/kg of a commercial hydroxytyrosol solution in distilled water; Group 2 was given 100 mg/5 mL/kg of an EGC solution in distilled water and 50 mg/5 mL/kg of a hydroxytyrosol solution in distilled water; and Group 3 was given 150 mg/5 mL/kg of an EGCG solution in distilled water and 50 mg/5 mL/kg of a hydroxytyrosol solution in distilled water—all of the groups were orally administered using a sonde. Before and at 0.25, 0.5, 1, 3 and 6 hours after the start of treatment, blood was sampled from the tail vein using a heparin-coated blood collection tube and centrifuged (at 8000 rpm for 10 min) to obtain plasma samples. The obtained plasma samples were subjected to deconjugation and deproteinization treatments, and the resulting supernatants were concentrated under reduced pressure, redissolved in 20% acetonitrile, and passed through a filter. The resulting solutions were analyzed by HPLC to determine their peak areas. Thus, quantification of hydroxytyrosol was performed. The EGCG used in this example was a commercially available EGCG product (EGCG purity: 94%). The HPLC conditions are shown below.
Column: X-bridge C18 (3.5 μm, 2.1×150 mm, produced by Waters)
Mobile phase: A: 0.1% acetic acid solution in water, B: 0.1% acetic acid/90% acetonitrile solution in water

[4] = Blood hydroxytyrosol after oral administration with 150 to 750 mg/kg grape seed extract (Example 4); assay type: in vivo; conditions: male, SD (IGS), rat, rats, hydroxytyrosol 30 mg/kg alone (control), plasma, read-out: AUC of hydroxytyrosol at 0 to 6 hours
Method: The present inventors investigated whether the same promoting effect on the absorption of hydroxytyrosol in the body can be observed even if the dose of the grape seed extract is further increased in the same test system as used for the investigations in Examples 2 and 3. […] The method for calculating this purity will be presented later in Example 5. Also, the amount of a galloyl group contained in the grape seed extract was measured as the amount of a galloyl ester and determined to be about 2.2% by weight. The method for calculating this amount will be presented later in Example 6.
SD (IGS) male rats (8 weeks old) were purchased from Oriental Bioservice, Inc. and habituated to the test environment for one week, and then those rats which were well grown were put to use in the selected test. Those rats fasted overnight were divided into five groups each consisting of 4 animals (however, Group 5 consists of 2 animals). […]
The obtained plasma samples were subjected to deconjugation and deproteinization treatments, and the resulting supernatants were concentrated under reduced pressure, redissolved in 20% acetonitrile, and passed through a filter. The resulting solutions were analyzed by LC/MS/MS, and quantification of hydroxytyrosol was performed using the internal standard method. […]

[5] = hydroxytyrosol 50 mg/kg concurrently with EGCG 150 mg/kg

| Compound | AUC [1] | blood hydroxytyrosol at 2 or 3 hours after administration [2] | AUC ([3]; male, SD (IGS), rat, hydroxytyrosol 50 mg/kg alone (control), plasma, read-out: AUC of hydroxytyrosol (amount absorbed in the body)) | time at which blood hydroxytyrosol concentration reached its peak ([3]; hydroxytyrosol 50 mg/kg alone) | AUC [4] | blood hydroxytyrosol concentration after its peak (absorption profile) [3, 5] | time at which blood hydroxytyrosol concentration reached its peak [3, 5] |
| --- | --- | --- | --- | --- | --- | --- | --- |
| OCCc1ccc(O)c(O)c1 [hydroxytyrosol, 3,4-dihydroxyphenylethanol] | 8640 ng·h/mL | little or no hydroxytyrosol was detected | 12000 ng·h/mL | 18 min | 7360 ng·h/mL | – | – |
| O=C(O[C@@H]1Cc2c(O)cc(O)cc2O[C@@H]1c1cc(O)c(O)c(O)c1)c1cc(O)c(O)c(O)c1 [EGCG, epigallocatechin gallate] | – | – | – | – | – | kept high even thereafter | 30 min |

From US20160184434A1, “AGENT FOR PROMOTING IN VIVO ABSORPTION OF HYDROXYTYROSOL AND DERIVATIVES THEREOF AND USE OF SAME” (priority 2013, published 2016)
